From patent publication US10577363B2, “Substituted piperidine compounds” (EPIZYME, INC., priority 2014, dated 2020) come the findings set out here.

For test [1], the target named is T1, SMYD3 (Homo sapiens (Human), UniProt Q9H7B4). Kind of test: SMYD3 biochemical assay (SPA, 3H-SAM methylation of MEKK2 protein substrate). Conditions: average of n = 1 to n = 50; read-out: SMYD3 Biochem IC50. The essentials:
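Methylation of N-terminally GST-tagged MEKK2 by untagged full-length human SMYD3, using 3H-SAM, in pH 8.0 Tris buffer with TCEP, BSG and Tween 20; enzyme and compound sat 30 min at room temperature before substrate addition. Stopped with 100 uM (final) cold SAM; incorporation read by scintillation proximity as dpm/cpm.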

Test [2] addresses T1, SMYD3. Kind of test: SMYD3 cell assay (Trimethyl-MEKK2 In-Cell Western in 293T/17 cells). The format is cell-based. The settings on record: average of n = 1 to n = 50; read-out: SMYD3 Cell IC50. The essentials: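 In-Cell Western readout: methanol-fixed cells stained for trimethyl-MEKK2 and flag tag, ratio per well normalized to DMSO and background controls.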

T1 sequence (Q9H7B4 whole entry): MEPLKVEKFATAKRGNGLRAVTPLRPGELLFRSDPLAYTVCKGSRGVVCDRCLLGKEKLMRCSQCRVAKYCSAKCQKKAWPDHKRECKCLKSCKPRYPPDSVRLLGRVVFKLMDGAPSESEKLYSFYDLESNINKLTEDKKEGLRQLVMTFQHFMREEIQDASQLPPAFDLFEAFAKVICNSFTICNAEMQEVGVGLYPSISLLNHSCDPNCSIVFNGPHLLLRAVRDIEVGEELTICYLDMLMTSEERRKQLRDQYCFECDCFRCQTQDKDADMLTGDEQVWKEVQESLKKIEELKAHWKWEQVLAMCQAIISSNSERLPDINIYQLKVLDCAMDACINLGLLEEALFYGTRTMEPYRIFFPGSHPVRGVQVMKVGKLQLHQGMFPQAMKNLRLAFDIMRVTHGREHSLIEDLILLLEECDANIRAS

For the molecule `CC1CN(S(=O)(=O)N2CC[C@H](NC(=O)c3cc(C4CC4)on3)C[C@@H]2C)CC(C)N1` (stereo partly drawn) [compound 701, 5-cyclopropyl-N-((2S,4S)-1-((3,5-dimethylpiperazin-1-yl)sulfonyl)-2-methylpiperidin-4-yl)isoxazole-3-carboxamide], the IC50 was determined as 210 nM at SMYD3 [1] and 1840 nM at SMYD3 [2].

In the case of `CC1CN(S(=O)(=O)N2[C@@H]3CC[C@H]2C[C@@H](NC(=O)c2cc(C4CC4)on2)C3)CC(C)N1C` (stereo partly drawn) [compound 702, 5-cyclopropyl-N-((1R,3r,5S)-8-((3,4,5-trimethylpiperazin-1-yl)sulfonyl)-8-azabicyclo[3.2.1]octan-3-yl)isoxazole-3-carboxamide], the figures for the IC50 on SMYD3 [1] and on SMYD3 [2] were 215 nM and 1240 nM, respectively.

Take `CN(CCCS(=O)(=O)N1[C@@H]2CC[C@H]1C[C@@H](NC(=O)c1cc(C3CC3)on1)C2)CCN1CCOCC1` [compound 703, 5-cyclopropyl-N-((1R,3r,5S)-8-((3-(methyl(2-morpholinoethyl)amino)propyl)sulfonyl)-8-azabicyclo[3.2.1]octan-3-yl)isoxazole-3-carboxamide]: the IC50 at SMYD3 [1] worked out at 217 nM; at SMYD3 [2] it was 804 nM.

With `O=C(N[C@H]1C[C@H]2CC[C@@H](C1)N2S(=O)(=O)CCNCCc1ccccc1)c1cc(C2CC2)on1` [compound 705, 5-cyclopropyl-N-((1R,3r,5S)-8-((2-(phenethylamino)ethyl)sulfonyl)-8-azabicyclo[3.2.1]octan-3-yl)isoxazole-3-carboxamide], the IC50 on SMYD3 [1] amounted to 225 nM; on SMYD3 [2], 1510 nM.

On to `C[C@H]1C[C@@H](NC(=O)c2cc(C3CC3)on2)CCN1S(=O)(=O)c1ccncc1` [compound 706, 5-cyclopropyl-N-((2S,4S)-2-methyl-1-(pyridin-4-ylsulfonyl)piperidin-4-yl)isoxazole-3-carboxamide], for which the IC50 at SMYD3 [1] came out at 238 nM; at SMYD3 [2] it was 1210 nM.

In the case of `O=C(N[C@H]1CCN(S(=O)(=O)CC2CCN(CCCO)CC2)[C@@H](Cc2ccccc2)C1)c1cc(C2CC2)on1` [compound 707, N-((2S,4S)-2-benzyl-1-(((1-(3-hydroxypropyl)piperidin-4-yl)methyl)sulfonyl)piperidin-4-yl)-5-cyclopropylisoxazole-3-carboxamide], the IC50 at SMYD3 [1] was 247 nM; at SMYD3 [2], 2540 nM.

Regarding `C[C@H]1C[C@@H](NC(=O)c2cc(C3CC3)on2)CCN1S(=O)(=O)c1cccc(N)n1` [compound 708, N-((2S,4S)-1-((6-aminopyridin-2-yl)sulfonyl)-2-methylpiperidin-4-yl)-5-cyclopropylisoxazole-3-carboxamide], the figures for the IC50 on SMYD3 [1] and at SMYD3 [2] were 252 nM and 1660 nM, respectively.

Consider `CN1CCC(N(C)S(=O)(=O)N2[C@@H]3CCC[C@@H]2CC(NC(=O)c2cc(C4CC4)on2)C3)CC1` (stereo partly drawn) [compound 709, 5-cyclopropyl-N-((1R,5R)-9-(N-methyl-N-(1-methylpiperidin-4-yl)sulfamoyl)-9-azabicyclo[3.3.1]nonan-3-yl)isoxazole-3-carboxamide], for which the results for the IC50 on SMYD3 [1] and at SMYD3 [2] were 258 nM and 1920 nM, respectively.

As to `C[C@H]1CN(S(=O)(=O)N2CCN(C)CC2)CC[C@H]1NC(=O)c1cc(C2CC2)on1` [compound 710, 5-cyclopropyl-N-((3S,4R)-3-methyl-1-((4-methylpiperazin-1-yl)sulfonyl)piperidin-4-yl)isoxazole-3-carboxamide], the IC50 on SMYD3 [1] was found to be 261 nM; at SMYD3 [2] it was 831 nM.

With `CC[C@@H]1CN(S(=O)(=O)N2CC[C@H](NC(=O)c3cc(C4CC4)on3)C[C@@H]2C)CCN1C` [compound 711, 5-cyclopropyl-N-((2S,4S)-1-(((R)-3-ethyl-4-methylpiperazin-1-yl)sulfonyl)-2-methylpiperidin-4-yl)isoxazole-3-carboxamide], the IC50 is 272 nM at SMYD3 [1] and 1150 nM on SMYD3 [2].

As to `C[C@@H]1CN(S(=O)(=O)N2CC[C@H](NC(=O)c3cc(C4CC4)on3)C[C@@H]2C)[C@@H](C)CN1C` [compound 712, 5-cyclopropyl-N-((2S,4S)-2-methyl-1-(((2S,5R)-2,4,5-trimethylpiperazin-1-yl)sulfonyl)piperidin-4-yl)isoxazole-3-carboxamide], the IC50 on SMYD3 [1] worked out at 275 nM; at SMYD3 [2], 1100 nM.

Take `CCC1CN(S(=O)(=O)N2[C@@H]3CC[C@H]2C[C@@H](NC(=O)c2cc(C4CC4)on2)C3)CCN1C` (stereo partly drawn) [compound 713, 5-cyclopropyl-N-((1R,3r,5S)-8-((3-ethyl-4-methylpiperazin-1-yl)sulfonyl)-8-azabicyclo[3.2.1]octan-3-yl)isoxazole-3-carboxamide]: the IC50 is 293 nM on SMYD3 [1] and 1180 nM at SMYD3 [2].

In the case of `CN(C1CCNCC1)S(=O)(=O)N1CC[C@@H](NC(=O)c2cc(C3CC3)on2)C[C@@H]1Cc1ccccc1` [compound 714, N-((2S,4R)-2-benzyl-1-(N-methyl-N-(piperidin-4-yl)sulfamoyl)piperidin-4-yl)-5-cyclopropylisoxazole-3-carboxamide], the IC50 on SMYD3 [1] was 295 nM; on SMYD3 [2] it was 3150 nM.

For `CN(C1CCNCC1)S(=O)(=O)N1CC[C@H](NC(=O)c2cc(C3CC3)on2)C[C@H]1Cc1ccccc1` [compound 715, N-((2R,4S)-2-benzyl-1-(N-methyl-N-(piperidin-4-yl)sulfamoyl)piperidin-4-yl)-5-cyclopropylisoxazole-3-carboxamide], the IC50 on SMYD3 [1] came to 297 nM; on SMYD3 [2], 3040 nM.

On to `C[C@@H]1C[C@H](NC(=O)c2cc(C3CC3)on2)CCN1S(=O)(=O)CCC(N)Cc1ccccc1` (stereo partly drawn) [compound 716, N-((2R,4R)-1-((3-amino-4-phenylbutyl)sulfonyl)-2-methylpiperidin-4-yl)-5-cyclopropylisoxazole-3-carboxamide], for which the figures for the IC50 at SMYD3 [1] and on SMYD3 [2] were 303 nM and 3530 nM, respectively.

Take `O=C(N[C@H]1CCN(S(=O)(=O)C2CCNC2)[C@@H](Cc2ccccc2)C1)c1cc(C2CC2)on1` (stereo partly drawn) [compound 717, N-((2S,4S)-2-benzyl-1-(pyrrolidin-3-ylsulfonyl)piperidin-4-yl)-5-cyclopropylisoxazole-3-carboxamide]: the IC50 on SMYD3 [1] stood at 306 nM; at SMYD3 [2], 2020 nM.

For the molecule `CN1CCC(N(C)S(=O)(=O)N2[C@@H]3CCC[C@H]2C[C@H](NC(=O)c2cc(C4CC4)on2)C3)CC1` [compound 718, 5-cyclopropyl-N-((1R,3s,5S)-9-(N-methyl-N-(1-methylpiperidin-4-yl)sulfamoyl)-9-azabicyclo[3.3.1]nonan-3-yl)isoxazole-3-carboxamide], the concentration for half-maximal inhibition (IC50) was 309 nM on SMYD3 [1] and 1620 nM on SMYD3 [2].

For `C[C@H]1CN(S(=O)(=O)N(C)C2CCN(Cc3ccccc3)CC2)CC[C@H]1NC(=O)c1cc(C2CC2)on1` [compound 719, N-((3S,4R)-1-(N-(1-benzylpiperidin-4-yl)-N-methylsulfamoyl)-3-methylpiperidin-4-yl)-5-cyclopropylisoxazole-3-carboxamide], the IC50 on SMYD3 [1] turned out to be 320 nM; at SMYD3 [2], 1210 nM.

Regarding `COCCN1CCC(CS(=O)(=O)N2CC[C@H](NC(=O)c3cc(C4CC4)on3)C[C@@H]2Cc2ccccc2)CC1` [compound 720, N-((2S,4S)-2-benzyl-1-(((1-(2-methoxyethyl)piperidin-4-yl)methyl)sulfonyl)piperidin-4-yl)-5-cyclopropylisoxazole-3-carboxamide], the IC50 on SMYD3 [1] came out at 322 nM; at SMYD3 [2], 2430 nM.

For the molecule `O=C(N[C@@H]1C[C@H]2CC[C@@H](C1)N2S(=O)(=O)CC1CCCNC1)c1cc(C2CC2)on1` (stereo partly drawn) [compound 721, 5-cyclopropyl-N-((1R,3s,5S)-8-((piperidin-3-ylmethyl)sulfonyl)-8-azabicyclo[3.2.1]octan-3-yl)isoxazole-3-carboxamide], the IC50 on SMYD3 [1] was 322 nM; at SMYD3 [2] it was 1830 nM.

`O=C(N[C@H]1C[C@H]2CC[C@@H](C1)N2S(=O)(=O)N1CCNC(c2ccccc2)C1)c1cc(C2CC2)on1` (stereo partly drawn) [compound 722, 5-cyclopropyl-N-((1R,3r,5S)-8-((3-phenylpiperazin-1-yl)sulfonyl)-8-azabicyclo[3.2.1]octan-3-yl)isoxazole-3-carboxamide]: the results for the IC50 on SMYD3 [1] and at SMYD3 [2] were 326 nM and 1520 nM, respectively.

`O=C(N[C@@H]1CCN(S(=O)(=O)CC2CCNCC2)[C@@H](Cc2ccccc2)C1)c1cc(C2CC2)on1` [compound 723, N-((2S,4R)-2-benzyl-1-((piperidin-4-ylmethyl)sulfonyl)piperidin-4-yl)-5-cyclopropylisoxazole-3-carboxamide]: the IC50 was 326 nM on SMYD3 [1] and 2730 nM on SMYD3 [2].

On to `CN(C1CCNCC1)S(=O)(=O)N1[C@@H]2CC[C@H]1C[C@H](NC(=O)c1cc(C3CC3)on1)C2` [compound 724, 5-cyclopropyl-N-((1R,3s,5S)-8-(N-methyl-N-(piperidin-4-yl)sulfamoyl)-8-azabicyclo[3.2.1]octan-3-yl)isoxazole-3-carboxamide], for which the IC50 on SMYD3 [1] was determined as 333 nM; at SMYD3 [2] it was 2440 nM.

As to `O=C(N[C@H]1CCN(S(=O)(=O)C2CCCNC2)[C@@H](Cc2ccccc2)C1)c1cc(C2CC2)on1` (stereo partly drawn) [compound 725, N-((2S,4S)-2-benzyl-1-(piperidin-3-ylsulfonyl)piperidin-4-yl)-5-cyclopropylisoxazole-3-carboxamide], the IC50 at SMYD3 [1] amounted to 340 nM; on SMYD3 [2], 3070 nM.

With `O=C(N[C@H]1C[C@H]2CC[C@@H](C1)N2S(=O)(=O)CCN1CCC(OCc2ccccc2)C1)c1cc(C2CC2)on1` (stereo partly drawn) [compound 726, N-((1R,3r,5S)-8-((2-(3-(benzyloxy)pyrrolidin-1-yl)ethyl)sulfonyl)-8-azabicyclo[3.2.1]octan-3-yl)-5-cyclopropylisoxazole-3-carboxamide], the IC50 was 360 nM on SMYD3 [1] and 2470 nM on SMYD3 [2].

One may read the IC50 as the point on the concentration scale where inhibition reaches its midpoint.
